Where two headings read alike, the source gives them in different places.
How the values were obtained:
Type in all cases: cell-based
AR = target: T1, AR (Homo sapiens, UniProt P10275); assay: Degradation of AR in VCaP cells; details: VCaP cells; for Dmax: VCaP
T1 construct: Degradation of AR; Cellular potency; host or cells: VCaP cells
T1 sequence (P10275 1-920): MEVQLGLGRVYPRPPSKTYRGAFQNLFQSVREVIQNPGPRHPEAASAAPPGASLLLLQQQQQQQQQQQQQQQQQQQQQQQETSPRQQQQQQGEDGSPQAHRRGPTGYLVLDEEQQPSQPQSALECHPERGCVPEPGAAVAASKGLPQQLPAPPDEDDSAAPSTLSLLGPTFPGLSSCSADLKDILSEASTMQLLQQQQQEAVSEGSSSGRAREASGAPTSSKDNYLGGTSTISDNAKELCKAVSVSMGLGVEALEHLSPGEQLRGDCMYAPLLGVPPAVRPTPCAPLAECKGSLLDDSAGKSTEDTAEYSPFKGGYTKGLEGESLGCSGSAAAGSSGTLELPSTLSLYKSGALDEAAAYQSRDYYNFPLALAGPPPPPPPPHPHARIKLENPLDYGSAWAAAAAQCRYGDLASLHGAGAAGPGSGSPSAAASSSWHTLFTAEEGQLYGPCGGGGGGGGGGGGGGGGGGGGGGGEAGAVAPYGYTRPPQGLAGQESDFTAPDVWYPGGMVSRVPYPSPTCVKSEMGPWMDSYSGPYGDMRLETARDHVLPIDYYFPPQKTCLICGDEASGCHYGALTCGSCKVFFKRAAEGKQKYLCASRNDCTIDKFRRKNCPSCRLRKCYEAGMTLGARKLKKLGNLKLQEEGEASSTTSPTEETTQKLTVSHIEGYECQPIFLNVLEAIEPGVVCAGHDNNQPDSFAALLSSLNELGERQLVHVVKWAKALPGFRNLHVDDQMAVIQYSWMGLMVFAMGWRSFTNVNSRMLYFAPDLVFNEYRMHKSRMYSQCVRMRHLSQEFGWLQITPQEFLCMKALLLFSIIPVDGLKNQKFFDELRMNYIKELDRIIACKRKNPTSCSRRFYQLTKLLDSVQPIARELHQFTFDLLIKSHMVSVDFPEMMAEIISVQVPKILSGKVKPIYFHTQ
Procedure: (§1) Biological Assays. LNCaP and VCaP cells used were purchased from American Type Culture Collection (ATCC). LNCaP were grown in RPMI 1640 (Invitrogen) and VCaP cells were grown in DMEM with Glutamax (Invitrogen). All of the cells were supplemented with 10% fetal bovine serum (Invitrogen) at 37° C. in a humidified 5% CO2 incubator.

LNCaP cells = assay: Cellular potency (IC50) in LNCaP cells
Procedure: as §1

VCaP cells = assay: Cellular potency (IC50) in VCaP cells
Procedure: as §1

Row | SMILES | DC50 (AR) | Dmax (AR) | IC50 (LNCaP cells; Homo sapiens, LNCaP) | IC50 (VCaP cells; Homo sapiens, VCaP) | IC50 (LNCaP cells) | IC50 (VCaP cells)
1 | C[C@H]1CC2(CCN(c3ccc(N4CCN(C5CCN(c6ccc7c(c6)C(=O)N(C6CCC(=O)NC6=O)C7=O)CC5)CC4)cc3)CC2)CN1c1ccc(C#N)c(Cl)c1 (some centres unmarked) [compound 29] | < 100 nM | > 90% | < 100 nM | < 100 nM |  | 
2 | C[C@H]1CC2(CCN(c3ccc(C4CCN(C5CN(c6ccc7c(c6)C(=O)N(C6CCC(=O)NC6=O)C7=O)C5)CC4)cc3)CC2)CN1c1ccc(C#N)c(Cl)c1 (some centres unmarked) [compound 22] | < 100 nM | 70 to 90% | < 100 nM | < 100 nM |  | 
3 | C[C@H]1CC2(CCN(c3ccc(S(=O)(=O)N4CCN(C5CN(c6ccc7c(c6)C(=O)N(C6CCC(=O)NC6=O)C7=O)C5)CC4)cc3)CC2)CN1c1ccc(C#N)c(Cl)c1 (some centres unmarked) [compound 2] | < 1 nM | > 90% | < 10 nM | < 10 nM |  | 
4 | C[C@H]1CC2(CCN(c3ccc(CN4CCC(N5CCN(c6cc7c(cc6F)C(=O)N(C6CCC(=O)NC6=O)C7=O)CC5)CC4)nn3)CC2)CN1c1ccc(C#N)c(Cl)c1 (some centres unmarked) [compound 203] | < 1 nM |  | < 10 nM | < 10 nM |  | 
5 | C[C@H]1CC2(CCN(c3ccc(C4CCN(CC5CCN(c6ccc7c(c6)C(=O)N(C6CCC(=O)NC6=O)C7=O)CC5)CC4)cn3)CC2)CN1c1ccc(C#N)c(Cl)c1 (some centres unmarked) [compound 44] | < 1 nM | > 90% | < 10 nM | < 10 nM |  | 
6 | C[C@H]1CC2(CCN(c3ccc(OC4CN(C5CCN(c6ccc7c(c6)C(=O)N(C6CCC(=O)NC6=O)C7=O)CC5)C4)nc3)CC2)CN1c1ccc(C#N)c(Cl)c1 (some centres unmarked) [compound 72] | < 100 nM | 50 to 70% | < 1000 nM | < 1000 nM |  | 
7 | C[C@H]1CC2(CCN(c3ccc(CN4CCN(C5CN(c6ccc7c(c6)C(=O)N(C6CCC(=O)NC6=O)C7=O)C5)CC4)cc3)CC2)CN1c1ccc(C#N)c(Cl)c1 (some centres unmarked) [compound 6] | < 1 nM |  |  |  | < 10 nM | < 10 nM
8 | C=C1CCC(N2C(=O)c3ccc(N4CCC(C5CCN(Cc6ccc(N7CCC8(CC7)C[C@H](C)N(c7ccc(C#N)c(Cl)c7)C8)cc6)CC5)CC4)cc3C2=O)C(=O)N1 (some centres unmarked) [compound 17] |  | 70 to 90% | < 100 nM | < 100 nM |  | 
9 | C[C@H]1CC2(CCN(c3ccc(C4CCN(CC5CN(c6ccc7c(c6)C(=O)N(C6CCC(=O)NC6=O)C7=O)C5)CC4)cc3)CC2)CN1c1ccc(C#N)c(Cl)c1 (some centres unmarked) [compound 21] | < 1 nM | > 90% | < 10 nM | < 10 nM |  | 
10 | C[C@H]1CC2(CCN(c3ccc(N4CCN(C5CN(c6ccc7c(c6)C(=O)N(C6CCC(=O)NC6=O)C7=O)C5)CC4)cc3F)CC2)CN1c1ccc(C#N)c(Cl)c1 (some centres unmarked) [compound 39] | < 1 nM | > 90% | < 10 nM | < 10 nM |  | 
11 | C[C@H]1CC2(CCN(c3ccc(N4CCN(C5CN(c6ccc7c(c6)C(=O)N(C6CCC(=O)NC6=O)C7=O)C5)CC4)nc3)CC2)CN1c1ccc(C#N)c(Cl)c1 (some centres unmarked) [compound 36] | < 1 nM | > 90% | < 10 nM | < 10 nM |  | 
12 | C[C@H]1CC2(CCN(c3ccc(S(=O)(=O)N4CCC(CN5Cc6cc7c(cc6C5)C(=O)N(C5CCC(=O)NC5=O)C7=O)CC4)cc3)CC2)CN1c1ccc(C#N)c(Cl)c1 (some centres unmarked) [compound 3] | < 1 nM | > 90% | < 10 nM | < 10 nM |  | 
13 | C[C@H]1CC2(CCN(c3ccc(CN4CCN(C5CN(c6ccc7c(c6)C(=O)N(C6CCC(=O)NC6=O)C7=O)C5)CC4)c(F)c3)CC2)CN1c1ccc(C#N)c(Cl)c1 (some centres unmarked) [compound 8] | < 10 nM | 70 to 90% | < 100 nM | < 100 nM |  | 
14 | C[C@H]1CC2(CCN(c3ccc(N4CCC(CN5CCN(c6ccc7c(c6)C(=O)N(C6CCC(=O)NC6=O)C7=O)CC5)CC4)nc3)CC2)CN1c1ccc(C#N)c(Cl)c1 (some centres unmarked) [compound 53] | < 10 nM | > 90% | < 100 nM | < 100 nM |  | 
15 | C[C@H]1CC2(CCN(c3ccc(CC4CCN(C5CN(c6ccc7c(c6)C(=O)N(C6CCC(=O)NC6=O)C7=O)C5)CC4)nc3)CC2)CN1c1ccc(C#N)c(Cl)c1 (some centres unmarked) [compound 197] | < 1 nM |  | < 10 nM | < 10 nM |  | 
